This note sets out measurements from patent US12110289B2, “Heterocyclic compounds, preparation methods and uses thereof” (InventisBio Co., Ltd., priority 2020, dated 2024).

For one data set, the system named is SW837 xenograft. The data set is described as follows: Colorectal adenocarcinoma SW837 xenograft model, tumor volume. The class given is in vivo, BALB/c nude mice. The protocol:
(§1) All the procedures related to animal handling, care and the treatment in this study were performed according to the guidelines approved by the Institutional Animal Care and Use Committee (IACUC) of SIPPER B&K following the guidance of the Association for Assessment and Accreditation of Laboratory Animal Care (AAALAC). At the time of routine monitoring, the animals were checked for any effects of tumor growth on normal behavior such as mobility, food and water consumption (by looking only), body weight gain/loss (body weights were measured twice weekly), eye/hair matting and any other abnormal effect. Death and observed clinical signs were recorded on the basis of the numbers of animals within each subset.
(§2) The NCI-H358, SW837, NCI-H2122 tumor cells were purchased from the American Type Culture Collection (ATCC). Cells were maintained in vitro as monolayer cultured in RPMI-1640 or DMEM medium supplemented with 10% fetal bovine serum, 50 IU/ml penicillin/streptomycin (GIBCO) at 37° C. in an atmosphere of 5% CO2 in air. The tumor cells were routinely sub cultured twice weekly by trypsin-EDTA treatment. The cells growing in an exponential growth phase were harvested and counted for tumor inoculation.
(§3) For tumor bearing models, female 6- to 8-week-old athymic BALB/c nude mice were used for human cancer cell lines. Each mouse was inoculated subcutaneously at the right flank with tumor cells (10×10^6) in 0.1 ml of PBS. The treatments were started when the average tumor size reached approximately 200-250 mm^3. Carboplatin, Cisplatin was injected twice a week by i.p. Vehicles and other test articles were given orally as a suspension by gavage once daily during the study or treatment period.
(§4) Tumor volume was calculated by measuring two perpendicular diameters using the following formula: (L×W 2)/2 in which L and W refer to the length and width tumor diameter, respectively. Results are expressed as mean and standard deviation of the mean.

Data set [1] can be described thus: Human hepatocyte clearance study. As to conditions: human, pooled cryopreserved human hepatocytes (suspension), working cell density 2 × 10^6 viable cells/mL. The format is in vitro ADME. The protocol:
(§5) The in vitro human hepatocyte clearance of compounds described here was studied using pooled human hepatocytes purchased from BioreclamationIVT (Westbury, NY, Cat #X008001, Lot #TQJ). The assay was conducted according to manufacturer's instruction. Briefly, 10 mM stock solutions of test compounds and positive control (Verapamil) were prepared in 100% DMSO. Thawing media (50 mL) used in the study consists of 31 mL Williams E medium (GIBCO Cat #12551-032), 15 mL isotonic percoll (GE Healthcare Cat #17-0891-09), 500 uL 100× GlutaMax (GIBCO Cat #35050), 750 uL HEPES (GIBCO Cat #15630-080), 2.5 mL FBS (Corning Cat #35-076-CVR), 50 uL human insulin (GIBCO Cat #12585-014) and 5 uL dexamethasone (NICPBP). Incubation media is made of Williams E medium supplemented with 1× GlutaMax. Both thawing medium and incubation medium (serum-free) were placed in a 37° C. water bath for at least 15 minutes prior to use. Compound stock solutions were diluted to 100 μM by combining 198 μL of 50% acetonitrile/50% water and 2 μL of 10 mM stock solution. Verapamil was use as positive control in the assay. Vials of cryopreserved hepatocytes were removed from storage and thawed in a 37° C. water bath with gentle shaking. Contents of the vial were poured into the 50 mL thawing medium conical tube. Vials were centrifuged at 100 g for 10 minutes at room temperature. […] […] […] The boiled hepatocytes were used to prepare negative samples. Aliquots of 198 μL hepatocytes were dispensed into each well of a 96-well non-coated plate. The plate was placed in the incubator on an orbital shaker at 500 rpm for approximately 10 minutes. Aliquots of 2 μL of the 100 μM test compound or positive control were added into respective wells of the non-coated 96-well plate to start the reaction. This assay was performed in duplicate. The plate was incubated in the incubator on an orbital shaker at 500 rpm for the designated time points. Twenty-five microliter of contents were transferred and mixed with 6 volumes (150 μL) of cold acetonitrile with IS (200 nM imipramine, 200 nM labetalol and 200 nM diclofenac) to terminate the reaction at time points of 0, 15, 30, 60, 90 and 120 minutes. Samples were centrifuged at 3,220 g for 25 minutes and aliquots of 150 μL of the supernatants were used for LC-MS/MS analysis. For data analysis, all calculations were carried out using Microsoft Excel. Peak areas were determined from extracted ion chromatograms. The in vitro half-life (t1/2) of parent compound was determined by regression analysis of the percent parent disappearance vs. time curve. […] Scaling factors for in vivo intrinsic clearance prediction using human hepatocytes are listed as: liver weight (g liver/kg body weight): 25.7; hepatocyte concentration (10^6 cells/g liver): 99; scaling factor: 2544.3.

Another data set deals with pooled human hepatocytes. The data set is described as follows: Human hepatocyte clearance study. The class given is in vitro ADME. The protocol:
as §5

The subject of data set [2] is Lung cancer cell line NCI-H358 containing KRas G12C mutation. The data set is described as follows: Assay for cell proliferation (Cell-titer Glo, 5 days). The format is cell-based, human. Put shortly:
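NCI-H358 (KRas G12C) cells, 2000 per well, attached overnight at 37 °C, 5% CO2, then treated with compound for 5 days at 0.5% DMSO final. Proliferation measured by CellTiter-Glo luminescence after 10 min at RT.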

The nature of data set [3]: Rat PK study, single i.g. dose. The format is in vivo. As to conditions: female, SD, plasma, PO, 10 mg/kg. The protocol: The pharmacokinetic (PK) profile of compounds following single i.g in SD rat obtained from […] Laboratory Animal Co., LTD of Shanghai was determined. Three female rats of weight around 220 g were used. Compounds were prepared at 1 mg/ml with the formulation of 10% DMSO+10% solutol HS15+80% (10% HPβCD in water). Blood samples (0.2 mL) were collected at 0 h (pre-dose) and 0.25, 0.5, 1, 2, 4, 8, 24 h time points after administration of compounds at the dose of 10 mg/kg. The collected blood samples were centrifuged without delay and the plasma was separated and transferred into tubes before storage at -70° C. prior to analysis. Aliquots of the plasma unknowns, blank and calibration standards were placed in 1.5 mL tubes and mixed with acetonitrile/methanol (1/1, v/v) containing IS. After vortexing for 5 min, each sample was centrifuged at 14000 rpm at 4° C. for 10 min. The supernatant were injected into the LC-MS/MS system. […] Eluates were analyzed using an API4000 Q-Trap mass spectrometer with a TurboIonSpray interface. Chromatographic separation was done with a mobile phase composed of water with 0.1% formic acid (solution A) and acetonitrile with 0.1% formic acid (solution B). The mobile phase was delivered at a flow rate of 0.6 mL/min, using a stepwise gradient elution program. To improve the sensitivity of the test compound screening, a MRM method in positive electrospray ionization mode was employed. Mass spectrometry data was acquired and analyzed using AB Sciex Analyst version 1.6.2 software. The pharmacokinetic parameters were derived using standard noncompartmental methods with Phoenix WinNonLin Professional Version 8.1.

For a further data set, the system named is NCI-H358 xenograft. The data set is described as follows: NSCLC H358 xenograft model, tumor volume. The class given is in vivo, BALB/c nude mice. As to conditions: 30 mg/kg oral once daily vs AMG510 at 30 mg/kg; FIG. 2. The protocol:
as §1, §2, §3, §4

Regarding `C=CC(=O)N1C[C@H](C)N(c2nc(=O)n(-c3c(C4CC4)ncnc3C3CC3)c3nc(-c4c(N)cccc4F)c(F)cc23)C[C@H]1C` [Compound 44], the “reducing tumor volume compared with AMG510” value in the data set on SW837 xenograft (60 mg/kg oral once daily vs AMG510 at 60 mg/kg, FIG. 1) is given as “more effective than AMG510”; in the data set with NCI-H358 xenograft, “more effective than AMG510”. In the data set with SW837 xenograft (Compound 44 at 30 mg/kg combined with trametinib at 1 mg/kg, FIG. 6), the “reduction of tumor volume, combined treatment vs either agent alone” value was “much better reduction of tumor volume”. For the same compound, the hepatocyte CLint at 1 µM in data set [1] (read-out: Human In vitro Clint (μl/min/10^6 cells)) came out at 4 µL/min/1e6 cells. The half-life at 1 µM in data set [1] (read-out: Human In vitro T1/2) came out at 2.87 h. For the same compound, in data set [1] (read-out: Human Scale-up Clint), the CLint scaled at 1 µM amounted to 10.2 mL/min/kg. Moreover, the “human hepatocyte clearance profile compared to control compounds” value in the data set with pooled human hepatocytes is recorded as “better human hepatocyte clearance profile”. Further, in the data set on pooled human hepatocytes (working cell density 2 × 10^6 viable cells/mL), the “Human Hepatocyte Remaining Percentage @ 120 min (%)” value was found to be 61.7%. Moreover, the “potency in inhibiting KRAS G12C compared with corresponding isopropyl analogs” value in data set [2] is “better potency”. The IC50 in data set [2] (Homo sapiens, NCI-H358, 120 h, read-out: IC50 (nM), Inhibition of NCI-H358 Cell Proliferation) stood at 2.1 nM. In data set [2] (NCI-H358 IC50 comparison), the “fold more potent: 2-amino-6-fluoro-phenyl compound vs. corresponding 2-fluoro-phenyl compound at R8” value was “about 19 ×”. In data set [3] (read-out: Rat PO (10 mpk) AUC last), the AUC(0-t) turned out to be 4.3 µM·h. The Cmax (usually the maximum level reached in the sampled fluid or tissue) in data set [3] (read-out: Rat PO (10 mpk) Cmax) stood at 1380 nM. The bioavailability in data set [3] (read-out: Rat PO (10 mpk) F %) was determined as 71%.
